{
  "source": "patent US8546338B2",
  "about": "“Self-assembling hydrogels based on dicephalic peptide amphiphiles” (Johnson & Johnson Consumer Companies, Inc., priority 2010, dated 2013)",
  "key": {"[1]": {"experiment": "Oscillating rheology, time sweep (kinetics of formation)", "type": "physicochemical", "conditions": "2 wt % gels in DMEM", "method": "(§1) Oscillating rheology by the parallel plates method (radius=25 mm) was performed on 400 μl gels to assess the mechanical strengths of gels. Time sweeps were performed to evaluate kinetics of formation at a constant strain rate of 1% and frequency of 1 rad/s. Strain sweeps were performed ranging from 1-100% strain in increments of 2% at a constant frequency of 1 rad/s. Cross-over of G′ and G″ was used to determine the gel point and point of breakdown. Time sweeps were initiated immediately after mixing the solutions that lead to DPA hydrogel formation. In the strain sweeps, the gels were allowed to form on the plate for 30 minutes before the measurement is initiated.\nThe gelation process was initiated on the plate at 25° C. by the addition of 10 μl of 100 mg/ml calcium chloride solution to a solution of the DPA in DMEM."}, "[2]": {"experiment": "Oscillating rheology, strain sweep", "type": "physicochemical", "conditions": "2 wt % gels in DMEM, formed for 30 minutes", "method": "as §1\nStrains sweeps were performed on 2 wt % Gly-Phe-Gly-Phe-Gly-Phe-Gly-Gln-Gln-Ser (SEQ ID NO: 8), Gly-Phe-Gly-Phe-Gly-Phe-Gly-Gln-Gly-Ser (SEQ ID NO: 12) and Gly-Phe-Gly-Phe-Gly-Phe-Gly-Asn-Asn-Ser (SEQ ID NO: 11) gels in DMEM (FIG. 8). Gels were allowed to form for 30 minutes before the experiment was initiated."}, "[3]": {"test_system": "human internal mammary artery derived cells (IMACs)", "experiment": "Cell viability of encapsulated IMACs in DPA gels (Live/Dead)", "type": "cell-based", "conditions": "2% DPA gel", "method": "The viability and proliferation of cells in the gels was evaluated by encapsulating human internal mammary artery derived cells (IMACs) in the gels. IMACs were isolated as described in copending U.S. patent application Ser. No. 12/885,855. Cells were thawed from storage and cultured for four days in advanced DMEM/F12 media. After four days, the cells were trypsinized and counted by the Guava ViaCount (Millipore, Billerica, Mass.) methodology. Cells were re-suspended in advanced DMEM/F12 media at a density of 1,000,000 cells/ml. Encapsulation of the cells in the gels was achieved by adding 100 μl cell suspension to 100 μl of a 4 wt % DPA solution in ultrapure in a 24 well plate, resulting in a final DPA concentration of 2%. The gels were incubated for 1 h at 37° C., 5% CO2 after which 1000 μl media was added on top of the gel. Cells were incubated at 37° C., 5% CO2. Every 3-4 days of culture, 500 μl media was replaced. The cells were cultured for 3 weeks and cells were assessed after 1, 2 and 3 weeks with Live/Dead. […] The IMAC cells appear to have high motility in these gels as evidenced by the channels that they create in the gels."}, "Sprague-Dawley rats": {"test_system": "Sprague-Dawley rats", "experiment": "Biocompatibility study, gel injected into intra-gluteal muscle pocket", "type": "in vivo", "conditions": "rat, in vivo", "method": "A biocompatibility study was performed on Gly-Val-Ala-Val-Ala-Val-Ala-Glu-Gly-Glu (SEQ ID NO: 4), Gly-Phe-Gly-Phe-Gly-Phe-Gly-Glu-Gly-Glu (SEQ ID NO: 5) and Gly-Phe-Gly-Phe-Gly-Phe-Gly-Gln-Gln-Ser (SEQ ID NO: 8) DPAs. Lyophilized DPA powders were e-beam sterilized in 1.5 cc polypropylene cryovials at 15 KGy. Gels were pre-formed in 1 cc syringes by mixing a 4 wt % DPA solution in water for injection in a 1:1 ratio with DMEM followed by immediate aspiration into the syringe. In the case of the formulations with the Glu-Gly-Glu (SEQ ID NO: 27) sequence in the solubility enhancing region, 10 μl of a sterile 100 mg/cc calcium chloride solution was mixed in before aspiration into the syringe. An intra-gluteal muscle pocket was created in Sprague-Dawley rats after which 100 μl of gel was injected using a catheter fitted to the syringe. Subsequently, the pocket was closed with polyglactin 910 sutures sold under the tradename VICRYL (Ethicon, Somerville, N.J.). Tissue was harvested at 3, 7 and 28 days after implantation."}, "[4]": {"experiment": "Gelation experiments: inversion test for self-supporting hydrogels", "type": "physicochemical", "conditions": "for Gelation (self-supporting gel on inversion), DMEM: DPA solution in water mixed 1:1 with DMEM; for Gelation (self-supporting gel on inversion), PBS / Gelation (self-supporting gel on inversion), Water: final concentrations 1, 2 and 4 weight percent tested; for Concentration at which gel forms, Water / Gelation (self-supporting gel on inversion), Water: in water; for Concentration at which gel forms, DMEM: mixed with DMEM", "method": "Inversion tests were performed to determine qualitatively under which conditions the various DPAs formed self-supporting hydrogels. The various types of DPAs were tested by dissolving them in ultrapure water (>18 MΩ resistivity) at double the desired final concentration followed by mixing in a 1:1 ratio with different liquid mediums. Gelation was deemed to have occurred if the gel supported its own weight upon inverting the vial (FIG. 3A and FIG. 3B). Gelation was tested at final concentrations of 1, 2 and 4 weight percent. We tested phosphate buffered saline (PBS), and Dulbecco's modified eagle media (DMEM) as liquid medium. Typical scale is 100 μl each of DPA solution in water and mixing medium but other scales have been tested. Finally, if no spontaneous gelation occurs, 10 μl of 100 mg/cc calcium chloride solution was added to induce gelation."}, "[5]": {"test_system": "human kidney derived cells (hKDCs)", "experiment": "Cell viability of encapsulated hKDCs in DPA gels (Live/Dead)", "type": "cell-based", "conditions": "2% DPA gel, after 1, 2 and 3 weeks", "method": "The viability and proliferation of cells in the gels was evaluated by encapsulating human kidney derived cells (hKDCs) in the gels. hKDC were isolated as described in US Patent Publication Number 2008/0112939. Cells were thawed from storage and cultured for four days in renal epithelial growth media (REGM) media. After four days, the cells were trypsinized and counted by the Guava ViaCount (Millipore, Billerica, Mass.) methodology. Cells were re-suspended in REGM media at a density of 1,000,000 cells/ml. Encapsulation of the cells in the gels was achieved by adding 100 μl cell suspension to 100 μl of a 4 wt % DPA solution in ultrapure in a 24 well plate, resulting in a final DPA concentration of 2%. The gels were incubated for 1 h at 37° C., 5% CO2 after which 1000 μl media was added on top of the gel. Cells were incubated at 37° C., 5% CO2. Every 3-4 days of culture, 500 μl media was replaced. The cells were cultured for 3 weeks and cells were assessed after 1, 2 and 3 weeks with Live/Dead."}, "[6]": {"conditions": "listed as Gly-Phe-Gly-Phe-Gly-Phe-Gly-Gln-Gln-Ser(DPA)_ (SEQ ID NO: 8)"}},
  "note": "Several values for one entry are separate records, joined by “and”; a condition that tells them apart may be missing. Identical values can stand only once.",
  "data": [
    {"smiles": "CCCCCCCCCCCCCCCC(=O)NC(C(=O)NCC(=O)N[C@@H](Cc1ccccc1)C(=O)NCC(=O)N[C@@H](Cc1ccccc1)C(=O)NCC(=O)N[C@@H](Cc1ccccc1)C(=O)NCC(=O)N[C@@H](CCC(N)=O)C(=O)N[C@@H](CCC(N)=O)C(=O)N[C@@H](CO)C(=O)O)C(=O)NCC(=O)N[C@@H](Cc1ccccc1)C(=O)NCC(=O)N[C@@H](Cc1ccccc1)C(=O)NCC(=O)N[C@@H](Cc1ccccc1)C(=O)NCC(=O)N[C@@H](CCC(N)=O)C(=O)N[C@@H](CCC(N)=O)C(=O)N[C@@H](CO)C(=O)O", "note": "[Gly-Phe-Gly-Phe-Gly-Phe-Gly-Gln-Gln-Ser]", "values": [
      {"measurement": "Gel point after mixing", "setting": "[1]", "result": 74, "unit": "s"},
      {"measurement": "Strain at which gel re-crosses the transition point (breakdown)", "setting": "[2]", "result": 99, "unit": "% strain"},
      {"measurement": "Strain at which gel re-crosses the transition point (breakdown)", "setting": "[2]; listed as Gln-Gln-Ser (SEQ ID NO: 28)", "result": "~100", "unit": "% strain"},
      {"measurement": "Viability of IMAC cells, Live/Dead", "setting": "[3]; after 1, 2 and 3 weeks", "result": "very limited numbers of dead cells were detected"},
      {"measurement": "Motility of IMAC cells in the gel", "setting": "[3]; three weeks, channels created in the gels", "result": "high motility"},
      {"measurement": "Gross observations", "setting": "Sprague-Dawley rats", "result": "some fluid buildup at day 3"},
      {"measurement": "Behaviour of gel after disruption by vortexing", "setting": "[4]; 4 wt % in water", "result": "reform when left alone"},
      {"measurement": "Time to self-supporting gel", "setting": "[4]; 4 wt % in water", "result": "approx. 5 minutes"},
      {"measurement": "Gelation (self-supporting gel on inversion), DMEM", "setting": "[4]; no calcium added", "result": "Yes and Yes,"},
      {"measurement": "Gelation (self-supporting gel on inversion), DMEM", "setting": "[4]; no calcium added, listed as Gly-Phe-Gly-Phe-Gly-Phe-Gly-Gln-Gln-Ser(DPA)_ (SEQ ID NO: 8)", "result": "Yes,"},
      {"measurement": "Concentration at which gel forms, PBS", "setting": "[4]", "result": "4 wt % and 4%"},
      {"measurement": "Gelation (self-supporting gel on inversion), PBS", "setting": "[4]", "result": "Yes and Yes,"},
      {"measurement": "Gelation (self-supporting gel on inversion), PBS", "setting": "[4]; [6]", "result": "Yes,"},
      {"measurement": "Concentration at which gel forms, PBS", "setting": "[4]; [6]", "result": 4, "unit": "%"},
      {"measurement": "Concentration at which gel forms, Water", "setting": "[4]", "result": "4 wt % and 4%"},
      {"measurement": "Gelation (self-supporting gel on inversion), Water", "setting": "[4]", "result": "Yes and Yes,"},
      {"measurement": "Gelation (self-supporting gel on inversion), Water", "setting": "[4]; [6]", "result": "Yes,"},
      {"measurement": "Concentration at which gel forms, Water", "setting": "[4]; [6]", "result": 4, "unit": "%"},
      {"measurement": "Concentration at which gel forms, DMEM", "setting": "[4]; no calcium added", "result": 2, "unit": "%"},
      {"measurement": "Concentration at which gel forms, DMEM", "setting": "[4]; no supplemental calcium", "result": 2, "unit": "wt %"},
      {"measurement": "Viability of hKDC cells, Live/Dead", "setting": "[5]", "result": "very limited numbers of dead cells were detected"}
    ]}
  ]
}
